Source: patent publication US6933320B2, “Combination comprising combretastatin and anticancer agents” (priority 2001, dated 2005)
“And” between values parts separate entries of the source, which are not always exact repeats. Identical values can stand only once. Like-named read-outs stand apart in the source and are kept apart here.

Assays:
C51 = assay: In vivo evaluation on subcutaneously grafted solid tumor C51
Procedure: A product is considered to be active if the log10 cell kill is greater than or equal to 0.7. A product is considered to be very active if the log10 cell kill is greater than 2.8.
(§1) The efficacy of the combinations on solid tumors were determined experimentally in the following manner:
The animals subjected to the experiment, generally mice, were subcutaneously grafted bilaterally with 30 to 60 mg of a tumor fragment on day 0. The animals bearing tumors were mixed before being subjected to the various treatments and controls. In the case of treatment of advanced tumors, tumors were allowed to develop to the desired size, and animals having insufficiently developed tumors were eliminated. The selected animals were distributed at random to undergo the treatments and controls. […] The different animal groups were weighed 3 or 4 times a week until the maximum weight loss was attained, and the groups were then weighed at least once a week until the end of the trial.
(§2) The tumors were measured 2 or 3 times a week until the tumor reached approximately 2 g, or until the animal died if this occurred before the tumor reached 2 g. The animals were autopsied when sacrificed.
(§3) The antitumor activity was determined in accordance with different parameters which were recorded such as dose (mg/kg), mode of administration, time of administration, cytotoxicity, toxicity and log cell kill.
The agents were administered intravenously unless otherwise specified.

MA13/C = format: in vivo
Procedure: This efficacy may be quantified, for example by the log10 cell kill, which is determined by the following formula: log10 cells killed=T-C(days)/3.32×Td in which T-C represents the time taken for the cells to grow, which is the mean time in days for the tumors of the treated group (T) to reach a predetermined value (1 g for example) and the tumors of the control group (C) to reach the same value, and Td represents the time in days needed for the volume of the tumors in the control group to double. (T. H. Corbett et al., Cancer, 40, 2660.2680 (1977); F. M. Schabel et al., Cancer Drug Development, Part B, Methods in Cancer Research, 17, 3-51, New York, Academic Press Inc. (1979)). A product is considered to be active if the log10 cell kill is greater than or equal to 0.7. A product is considered to be very active if the log10 cell kill is greater than 2.8.
as §1
The animals subjected to the experiment, generally mice, were subcutaneously grafted bilaterally with 30 to 60 mg of a tumor fragment on day 0. The animals bearing tumors were mixed before being subjected to the various treatments and controls. In the case of treatment of advanced tumors, tumors were allowed to develop to the desired size, and animals having insufficiently developed tumors were eliminated. The selected animals were distributed at random to undergo the treatments and controls. Animals not bearing tumors were also subjected to the same treatments as the tumor-bearing animals in order to be able to dissociate the toxic effect from the specific effect on the tumor. Chemotherapy generally began from 3 to 22 days after grafting, depending on the type of tumor, and the animals were observed every day. The different animal groups were weighed 3 or 4 times a week until the maximum weight loss was attained, and the groups were then weighed at least once a week until the end of the trial.
as §2, §3
In this and the following examples, RPR 258062A corresponds to the hydrochloride salt of compound IIa. The agents were administered intravenously unless otherwise specified.

[1] = Solubility in water (statement); format: physicochemical; details: statement in words, no method given
[2] = single agent at HNTD, i.v., schedule days 12, 16
[3] = sequential combination CPT-11 oral 400 mg/kg days 13-16 + RPR 258062A 36 mg/kg day 17
[4] = single agent at HNTD, RPR 258062A i.v. days 13-17 (2x/d), CPT-11 oral days 14-17
[5] = MA13/C tumor, single agent at HNTD, i.v., docetaxel days 17, 24 (* evaluated on mice that developed tumor), RPR 258062A days 17, 24 (2x/d)
[6] = MA13/C tumor, single agent at HNTD, i.v., docetaxel days 17, 24, RPR 258062A days 17, 24 (2x/d)
[7] = MA13/C tumor, single agent at HNTD, i.v., schedule days 15, 22 (doxorubicin study)
[8] = sequential combination RPR 258062A 58 mg/kg day 14 + CDDP 10 mg/kg days 15, 19, i.v.
[9] = simultaneous combination RPR 258062A 1st 116 mg/kg days 12, 16 + CDDP 10 mg/kg days 12, 16, i.v.
[10] = MA13/C tumor, sequential combination RPR 258062A 1st 75 mg/kg day 14 + vinorelbine 2nd 32 mg/kg days 15, 25, i.v.
[11] = MA13/C tumor, single agent at HNTD, i.v., schedule days 15, 25 (vinorelbine study)

## N.N.[Cl][Pt][Cl] [CDDP, cisplatinum, reference compound]
C51; [2]
  LcK (log cell kill): 1.9
  RR CR (complete response): 0/6
  RR PR (partial response): 5/6
  T-C (tumor growth delay): 16.5 days
  TFS (tumor free survivors): 0/6

## CCc1c2c(nc3ccc(OC(=O)N4CCC(N5CCCCC5)CC4)cc13)-c1cc3c(c(=O)n1C2)COC(=O)[C@]3(O)CC [CPT-11, reference compound]
C51; [3]
  LcK (log cell kill): 1.9
  RR CR (complete response): 3/5
  RR PR (partial response): 5/5
  T-C (tumor growth delay): 15.1 days
  TFS (tumor free survivors): 0/5
C51; [4]
  LcK (log cell kill): 1.1
  RR CR (complete response): 0/5
  RR PR (partial response): 0/5
  T-C (tumor growth delay): 8.7 days
  TFS (tumor free survivors): 0/5

## CC(=O)O[C@@]12CO[C@@H]1C[C@H](O)[C@@]1(C)C(=O)[C@H](O)C3=C(C)[C@@H](OC(=O)[C@H](O)[C@@H](NC(=O)OC(C)(C)C)c4ccccc4)C[C@@](O)([C@@H](OC(=O)c4ccccc4)[C@H]21)C3(C)C [Docetaxel, docetaxel, reference compound]
MA13/C; [5]
  LcK (log cell kill): 3.2*
MA13/C; [6]
  RR CR (complete response): 4/6
  RR PR (partial response): 6/6
  T-C (tumor growth delay): 26.7 days
  TFS (tumor free survivors): 3/6
MA13/C; mouse, in vivo, iv
  HNTD Dose (highest nontoxic dose): 68 mg/kg

## COc1cccc2c1C(=O)c1c(O)c3c(c(O)c1C2=O)C[C@@](O)(C(=O)CO)C[C@@H]3O[C@H]1C[C@H](N)[C@H](O)[C@H](C)O1 [Doxorubicin, doxorubicin, reference compound]
MA13/C; [7]
  LcK (log cell kill): 4.5
  RR CR (complete response): 4/6
  RR PR (partial response): 4/6
  T-C (tumor growth delay): 53.5 days
  TFS (tumor free survivors): 0/6
MA13/C; mouse, in vivo, iv
  HNTD Dose (highest nontoxic dose): 17.4 mg/kg

## COc1ccc(/C=C\c2cc(OC)c(OC)c(OC)c2)cc1NC(=O)C(N)CO (centres unmarked) [IIa]
[1]
  Solubility in water: soluble in water

## COc1ccc(/C=C\c2cc(OC)c(OC)c(OC)c2)cc1NC(=O)C(N)CO (centres unmarked) [RPR 258062A]
C51; sequential combination CPT-11 oral (days 13-16) + RPR 258062A i.v. (day 17), dose of each constituent
  HNTD Dose (highest nontoxic dose): 36 mg/kg
C51; [8]
  LcK (log cell kill): 5.9
  RR CR (complete response): 5/5
  RR PR (partial response): 5/5
  T-C (tumor growth delay): 51 days
  TFS (tumor free survivors): 0/5
C51; sequential combination RPR 258062A (day 14) + CDDP (days 15, 19), i.v., dose of each constituent
  HNTD Dose (highest nontoxic dose): 58 mg/kg
C51; [9]
  RR CR (complete response): 6/6
  RR PR (partial response): 6/6
  TFS (tumor free survivors): 6/6
C51; simultaneous combination RPR 258062A 1st (days 12, 16) + CDDP (days 12, 16), i.v., dose of each constituent
  HNTD Dose (highest nontoxic dose): 116 mg/kg
C51; [4]
  LcK (log cell kill): 1.3
  RR CR (complete response): 0/5
  RR PR (partial response): 5/5
  T-C (tumor growth delay): 10.3 days
  TFS (tumor free survivors): 0/5
C51; [2]
  LcK (log cell kill): 1.2
  RR CR (complete response): 0/6
  RR PR (partial response): 6/6
  T-C (tumor growth delay): 10 days
  TFS (tumor free survivors): 0/6
C51; single agent, RPR 258062A i.v. days 13-17 (2x/d), CPT-11 oral days 14-17
  HNTD Dose (highest nontoxic dose): 116.5 mg/kg
C51; single agent, i.v., schedule days 12, 16
  HNTD Dose (highest nontoxic dose): 116 mg/kg
MA13/C; MA13/C tumor, sequential combination RPR 258062A 150 mg/kg days 16, 23 (2x/d) + docetaxel 109.6 mg/kg days 17, 24, i.v.
  RR CR (complete response): 6/6
MA13/C; [10]
  RR CR (complete response): 5/5
  RR PR (partial response): 5/5
  T-C (tumor growth delay): 84.7 days
MA13/C; MA13/C tumor, sequential combination RPR 258062A 1st (day 14) + vinorelbine 2nd (days 15, 25), i.v., dose of each constituent
  HNTD Dose (highest nontoxic dose): 75 mg/kg
MA13/C; MA13/C tumor, sequential combination RPR 258062A (days 15, 21) + doxorubicin (days 16, 22), i.v., dose of each constituent
  HNTD Dose (highest nontoxic dose): 139.6 mg/kg
MA13/C; MA13/C tumor, sequential combination RPR 258062A (days 16, 23, 2x/d) + docetaxel (days 17, 24), i.v., dose of each constituent
  HNTD Dose (highest nontoxic dose): 150 mg/kg
MA13/C; [7]
  LcK (log cell kill): 1.3
  RR CR (complete response): 0/6
  RR PR (partial response): 0/6
  T-C (tumor growth delay): 30.2 days
  TFS (tumor free survivors): 0/6
MA13/C; [11]
  LcK (log cell kill): 0.5
  RR CR (complete response): 0/5
  RR PR (partial response): 0/5
  T-C (tumor growth delay): 5 days
  TFS (tumor free survivors): 0/5
MA13/C; [5]
  LcK (log cell kill): 1.3
MA13/C; [6]
  RR CR (complete response): 1/6
  RR PR (partial response): 1/6
  T-C (tumor growth delay): 10.8 days
  TFS (tumor free survivors): 0/6
MA13/C; MA13/C tumor, single agent, i.v., schedule days 15, 22 (doxorubicin study)
  HNTD Dose (highest nontoxic dose): 186.0 mg/kg
MA13/C; MA13/C tumor, single agent, i.v., schedule days 15, 25 (vinorelbine study)
  HNTD Dose (highest nontoxic dose): 150 mg/kg
MA13/C; MA13/C tumor, single agent, i.v., docetaxel days 17, 24, RPR 258062A days 17, 24 (2x/d)
  HNTD Dose (highest nontoxic dose): 242 mg/kg
MA13/C; mouse, in vivo
  RR CR (complete response): 7/7
  RR PR (partial response): 6/6 and 7/7
  T-C (tumor growth delay): 74.8 days and 80.6 days
  TFS (tumor free survivors): 2/5 and 4/6 and 2/7

## CCC1=C[C@@H]2CN(C1)Cc1c([nH]c3ccccc13)[C@@](C(=O)OC)(c1cc3c(cc1OC)N(C)[C@H]1[C@@](O)(C(=O)OC)[C@H](OC(C)=O)[C@]4(CC)C=CCN5CC[C@]31[C@@H]54)C2 [Vinorelbine, vinorelbine, reference compound]
MA13/C; [11]
  LcK (log cell kill): 4.6
  RR CR (complete response): 5/5
  RR PR (partial response): 5/5
  T-C (tumor growth delay): 45.5 days
  TFS (tumor free survivors): 0/5
MA13/C; mouse, in vivo, iv
  HNTD Dose (highest nontoxic dose): 19.8 mg/kg
